According to article PMC11452651 (Nature Communications, 2024):

Columns and labels:
[1] = molecular target: p38α (Homo sapiens, UniProt Q16539); assay: Fluorescence polarization; type: binding; settings: p38 Kiapp
[2] = molecular target: JNK1 (Homo sapiens, UniProt P45983); assay: Fluorescence polarization; type: binding; settings: JNK1 Kiapp
[3] = molecular target: ERK2 (Homo sapiens, UniProt P28482); assay: Fluorescence polarization; type: binding; settings: ERK2 Kiapp, Table 2, different electron withdrawing groups at C2 or cyclopentenone scaffold
Sequence of ERK2 (P28482 whole entry): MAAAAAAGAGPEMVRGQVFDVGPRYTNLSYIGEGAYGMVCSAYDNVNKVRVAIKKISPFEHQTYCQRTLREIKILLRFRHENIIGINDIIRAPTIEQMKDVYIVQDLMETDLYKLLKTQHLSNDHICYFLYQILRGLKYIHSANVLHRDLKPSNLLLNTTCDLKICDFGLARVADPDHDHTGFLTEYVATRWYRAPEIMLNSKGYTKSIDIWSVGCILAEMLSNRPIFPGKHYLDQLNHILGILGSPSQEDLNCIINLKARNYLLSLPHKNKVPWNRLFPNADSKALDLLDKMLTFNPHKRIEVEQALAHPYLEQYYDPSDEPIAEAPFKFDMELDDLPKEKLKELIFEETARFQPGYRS

[4] = tested on: AP-1 promoter mediated transcription; type: cell-based; settings: 1 μM, + PMA, 6 h
[5] = Table 2, different electron withdrawing groups at C2 or cyclopentenone scaffold

Sequence of p38α (Q16539 whole entry): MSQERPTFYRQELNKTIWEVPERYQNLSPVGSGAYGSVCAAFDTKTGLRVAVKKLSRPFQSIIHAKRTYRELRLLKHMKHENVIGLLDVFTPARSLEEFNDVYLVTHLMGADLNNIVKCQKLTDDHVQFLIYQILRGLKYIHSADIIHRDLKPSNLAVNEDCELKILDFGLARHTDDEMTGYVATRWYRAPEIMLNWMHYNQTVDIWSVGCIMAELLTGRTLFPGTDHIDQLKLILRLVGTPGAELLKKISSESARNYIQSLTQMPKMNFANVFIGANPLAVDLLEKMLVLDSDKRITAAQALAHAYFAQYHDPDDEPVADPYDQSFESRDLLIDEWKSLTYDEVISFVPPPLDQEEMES
Sequence of JNK1 (P45983 whole entry): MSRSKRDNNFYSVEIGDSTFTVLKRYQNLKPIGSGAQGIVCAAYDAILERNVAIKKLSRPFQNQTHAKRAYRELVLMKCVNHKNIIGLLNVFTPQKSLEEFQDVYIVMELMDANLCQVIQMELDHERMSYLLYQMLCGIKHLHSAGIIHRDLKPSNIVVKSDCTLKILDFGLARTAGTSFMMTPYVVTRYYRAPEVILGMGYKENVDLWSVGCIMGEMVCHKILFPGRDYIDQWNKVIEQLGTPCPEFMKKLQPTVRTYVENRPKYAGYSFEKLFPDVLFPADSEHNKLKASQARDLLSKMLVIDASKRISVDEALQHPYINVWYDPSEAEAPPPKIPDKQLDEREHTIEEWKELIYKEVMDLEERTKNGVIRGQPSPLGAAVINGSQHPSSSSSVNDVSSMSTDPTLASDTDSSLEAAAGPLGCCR

Structure (SMILES)	Ki ([1]; Table 4, C4-extended compounds)	Ki ([2]; Table 4, C4-extended compounds)	Ki [3]	Ki [1, 5]	Ki [2, 5]	effect on AP-1 mediated transcription [4]
C#CCCOC(=O)[C@]1(C)C=C(C(=O)OC(C)(C)C)C(=O)CC1 [29S]	1.1 ± 0.1 µM	2.4 ± 0.3 µM	–	–	–	–
COC(=O)C1=CC(C)(C)CC1=O [compound 25]	–	–	136 ± 14.1 µM	28 ± 2.4 µM	> 200 µM	–
O=C(Nc1ccc2[nH]nc(-c3ccncc3)c2c1)[C@@H]1CCN(CC(=O)N2CCN(c3ccc(-c4ncccn4)cc3)CC2)C1 [SCH772984]	–	–	–	–	–	attenuate
Cc1cc(-c2cccc(-n3cc(COC(=O)[C@]4(C)C=C(C(=O)OC(C)(C)C)C(=O)CC4)nn3)c2)c(C)c2c1CNCC2 [33S]	2.8 ± 0.7 µM	8.8 ± 2.6 µM	–	–	–	–
Oc1ccc(-c2nc(-c3ccncc3)c(-c3ccc(F)cc3)[nH]2)cc1 [SB202190]	–	–	–	–	–	attenuate
CC1(C)C=C(C(=O)OC(C)(C)C)C(=O)C1 [compound 26]	–	–	169 ± 8.7 µM	27.4 ± 3.3 µM	> 200 µM	–
